Experimental data reported in Sander's compilation of Henry's law constants (doi:10.1007/bf00479396).

Test: Henry solubility constant Hcp at 293 K (mol/(m3 Pa))
Settings: reference: Tremp et al. (1993)

| Compound | Henry solubility constant Hcp at 293 K |
| --- | --- |
| Cc1cc(O)ccc1[N+](=O)[O-] [3-methyl-4-nitrophenol] | 620 |
| Cc1ccc([N+](=O)[O-])c(O)c1 [5-methyl-2-nitrophenol] | 0.77 |
| O=[N+]([O-])c1ccc(O)c([N+](=O)[O-])c1 [2,4-dinitrophenol] | 110 |
| Cc1ccc(O)cc1 [1-hydroxy-4-methylbenzene] | 13 |
| Cc1ccc(O)c([N+](=O)[O-])c1 [4-methyl-2-nitrophenol] | 0.67 |
| O=[N+]([O-])c1ccc(F)cc1O [5-fluoro-2-nitrophenol] | 0.5 |
| O=[N+]([O-])c1ccccc1O [2-nitrophenol] | 0.77 |
| Cc1ccccc1O [1-hydroxy-2-methylbenzene] | 7.1 |
| CCC(C)c1ccc(O)c([N+](=O)[O-])c1 (configuration not stated) [4-(1-methylpropyl)-2-nitrophenol] | 0.1 |
| Cc1cccc([N+](=O)[O-])c1O [6-methyl-2-nitrophenol] | 0.29 |
| COc1ccc(O)c([N+](=O)[O-])c1 [4-methoxy-2-nitrophenol] | 5.3 |
| O=[N+]([O-])c1ccc(O)cc1 [4-nitrophenol] | 770 |
